Values joined by “and” are separate entries in the source; they are usually repeats but may differ in a detail not shown here. Equal values may be shown once. Toxic doses and inconclusive results are not listed.
Tested on: CD2F1 mice, L1210 leukemia ip, survival T/C
Assay: NCI In Vivo Anticancer Drug Screen. Data for tumor model L1210 Leukemia (intraperitoneal) in CD2F1 (CDF1) mice
Details: higher = longer survival
In short: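 Vehicle-treated tumor-bearing mice served as controls (C) for compound-treated mice (T). Reported figure is T divided by C.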

[1] = endpoint: mean survival time, dose: 200.0 mg/kg/injection, schedule: Q01DX009 (ip), vehicle: saline with Tween-80
[2] = endpoint: mean survival time, dose: 100.0 mg/kg/injection, schedule: Q01DX009 (ip), vehicle: saline with Tween-80
[3] = endpoint: mean survival time, dose: 400.0 mg/kg/injection, schedule: Q01DX009 (ip), vehicle: saline with Tween-80
[4] = endpoint: mean survival time, dose: 50.0 mg/kg/injection, schedule: Q01DX009 (ip), vehicle: saline with Tween-80
[5] = endpoint: mean survival time, dose: 100.0 mg/kg/injection, schedule: Q04DX003 (ip), vehicle: saline with Tween-80
[6] = endpoint: mean survival time, dose: 200.0 mg/kg/injection, schedule: Q04DX003 (ip), vehicle: saline with Tween-80
[7] = endpoint: mean survival time, dose: 400.0 mg/kg/injection, schedule: Q04DX003 (ip), vehicle: saline with Tween-80
[8] = endpoint: mean survival time, dose: 5.0 mg/kg/injection, schedule: Q04DX003 (ip), vehicle: saline

Compound: Nc1ncnc2c1ncn2C1OC(CO)C(O)C1O (configuration not stated)
- T/C (endpoint: mean survival time, dose: 3.12 mg/kg/injection, schedule: Q01DX009 (ip), vehicle: Klucel (hydroxypropylcellulose) (HPC)): 100 % of control
- T/C (endpoint: mean survival time, dose: 6.25 mg/kg/injection, schedule: Q01DX009 (ip), vehicle: Klucel (hydroxypropylcellulose) (HPC)): 100 % of control
- T/C (endpoint: mean survival time, dose: 12.5 mg/kg/injection, schedule: Q01DX009 (ip), vehicle: Klucel (hydroxypropylcellulose) (HPC)): 95 % of control
- T/C (endpoint: mean survival time, dose: 18.7 mg/kg/injection, schedule: Q01DX009 (ip), vehicle: saline): 87 % of control
- T/C (endpoint: mean survival time, dose: 18.75 mg/kg/injection, schedule: Q01DX009 (ip), vehicle: saline): 92 % of control
- T/C (endpoint: mean survival time, dose: 18.75 mg/kg/injection, schedule: Q04DX003 (ip), vehicle: saline): 97 % of control
- T/C (endpoint: mean survival time, dose: 25.0 mg/kg/injection, schedule: Q01DX009 (ip), vehicle: Klucel (hydroxypropylcellulose) (HPC)): 95 % of control
- T/C (endpoint: mean survival time, dose: 25.0 mg/kg/injection, schedule: Q04DX003 (ip), vehicle: saline): 100 % of control
- T/C (endpoint: mean survival time, dose: 37.5 mg/kg/injection, schedule: Q01DX009 (ip), vehicle: saline): 86 % of control and 96 % of control
- T/C (endpoint: mean survival time, dose: 37.5 mg/kg/injection, schedule: Q04DX003 (ip), vehicle: saline): 98 % of control
- T/C (endpoint: mean survival time, dose: 50.0 mg/kg/injection, schedule: Q04DX003 (ip), vehicle: saline): 100 % of control
- T/C (endpoint: mean survival time, dose: 75.0 mg/kg/injection, schedule: Q01DX009 (ip), vehicle: saline): 96 % of control
- T/C (endpoint: mean survival time, dose: 110.0 mg/kg/injection, schedule: Q03HX024 (ip), vehicle: saline with Tween-80): 120 % of control
- T/C (endpoint: mean survival time, dose: 118.0 mg/kg/injection, schedule: Q01DX005 (ip), vehicle: water): 102 % of control
- T/C (endpoint: mean survival time, dose: 118.0 mg/kg/injection, schedule: Q01DX009 (ip), vehicle: water): 104 % of control
- T/C (endpoint: mean survival time, dose: 150.0 mg/kg/injection, schedule: Q01DX009 (ip), vehicle: saline): 96 % of control and 100 % of control
- T/C (endpoint: mean survival time, dose: 177.0 mg/kg/injection, schedule: Q01DX005 (ip), vehicle: water): 99 % of control
- T/C (endpoint: mean survival time, dose: 177.0 mg/kg/injection, schedule: Q01DX009 (ip), vehicle: water): 117 % of control
- T/C [1]: 117 % of control
- T/C (endpoint: mean survival time, dose: 200.0 mg/kg/injection, schedule: Q03HX024 (ip), vehicle: saline with Tween-80): 124 % of control
- T/C (endpoint: mean survival time, dose: 266.0 mg/kg/injection, schedule: Q01DX005 (ip), vehicle: water): 106 % of control
- T/C (endpoint: mean survival time, dose: 266.0 mg/kg/injection, schedule: Q01DX009 (ip), vehicle: water): 112 % of control
- T/C (endpoint: mean survival time, dose: 300.0 mg/kg/injection, schedule: Q01DX009 (ip), vehicle: saline with Tween-80): 114 % of control
- T/C (endpoint: mean survival time, dose: 300.0 mg/kg/injection, schedule: Q01DX009 (ip), vehicle: saline): 119 % of control and 97 % of control
- T/C (endpoint: mean survival time, dose: 400.0 mg/kg/injection, schedule: Q01DX005 (ip), vehicle: water): 108 % of control
- T/C (endpoint: mean survival time, dose: 400.0 mg/kg/injection, schedule: Q01DX009 (ip), vehicle: water): 112 % of control
- T/C (endpoint: mean survival time, dose: 450.0 mg/kg/injection, schedule: Q01DX009 (ip), vehicle: saline with Tween-80): 114 % of control
- T/C (endpoint: mean survival time, dose: 600.0 mg/kg/injection, schedule: Q01DX005 (ip), vehicle: water): 108 % of control
- T/C (endpoint: mean survival time, dose: 600.0 mg/kg/injection, schedule: Q01DX009 (ip), vehicle: saline): 105 % of control
- T/C (endpoint: mean survival time, dose: 600.0 mg/kg/injection, schedule: Q01DX009 (ip), vehicle: water): 114 % of control
- T/C (endpoint: mean survival time, dose: 900.0 mg/kg/injection, schedule: Q01DX005 (ip), vehicle: water): 113 % of control
- T/C (endpoint: mean survival time, dose: 900.0 mg/kg/injection, schedule: Q01DX009 (ip), vehicle: water): 109 % of control
- T/C (endpoint: median survival time, dose: 1.56 mg/kg/injection, schedule: Q01DX009 (ip), vehicle: saline): 111 % of control
- T/C (endpoint: median survival time, dose: 3.12 mg/kg/injection, schedule: Q01DX009 (ip), vehicle: saline): 109 % of control
- T/C (endpoint: median survival time, dose: 6.25 mg/kg/injection, schedule: Q01DX009 (ip), vehicle: saline): 110 % of control
- T/C (endpoint: median survival time, dose: 11.25 mg/kg/injection, schedule: Q03HX012 (ip), vehicle: saline): 112 % of control
- T/C (endpoint: median survival time, dose: 12.5 mg/kg/injection, schedule: Q01DX009 (ip), vehicle: saline): 108 % of control
- T/C (endpoint: median survival time, dose: 22.5 mg/kg/injection, schedule: Q03HX012 (ip), vehicle: saline): 107 % of control
- T/C (endpoint: median survival time, dose: 25.0 mg/kg/injection, schedule: Q01DX009 (ip), vehicle: saline): 115 % of control
- T/C (endpoint: median survival time, dose: 45.0 mg/kg/injection, schedule: Q03HX012 (ip), vehicle: saline): 112 % of control
- T/C (endpoint: median survival time, dose: 50.0 mg/kg/injection, schedule: Q01DX009 (ip), vehicle: saline): 79 % of control
- T/C (endpoint: median survival time, dose: 90.0 mg/kg/injection, schedule: Q03HX012 (ip), vehicle: saline): 116 % of control
- T/C (endpoint: median survival time, dose: 180.0 mg/kg/injection, schedule: Q03HX012 (ip), vehicle: saline): 122 % of control

Compound: CCCCCCCC(=O)Nc1cc(C(F)(F)F)ccc1Cl
- T/C [2]: 93 % of control
- T/C [1]: 96 % of control
- T/C [3]: 94 % of control

Compound: c1ccc(NSc2ccccc2)cc1
- T/C [4]: 101 % of control
- T/C [2]: 101 % of control
- T/C [1]: 96 % of control

Compound: CCOC(=O)c1ccc(N(CC)CC)cc1
- T/C [2]: 95 % of control
- T/C [5]: 104 % of control
- T/C [1]: 92 % of control
- T/C [6]: 98 % of control
- T/C [3]: 95 % of control
- T/C [7]: 94 % of control

Compound: COc1cc(C)cc(O)c1C=O
- T/C [5]: 100 % of control
- T/C [6]: 100 % of control
- T/C [7]: 100 % of control

Compound: COc1cc2c3c(c1OC)C1(C=CC(=O)C=C1)CC3N(C(C)=O)CC2 (configuration not stated)
- T/C [5]: 97 % of control
- T/C [6]: 95 % of control
- T/C [7]: 94 % of control

Compound: O=C1C(NCC(O)CO)=C(N2CC2)C(=O)C(NCC(O)CO)=C1N1CC1 (configuration not stated)
- T/C (endpoint: mean survival time, dose: 1.25 mg/kg/injection, schedule: Q01DX009 (oral), vehicle: saline): 91 % of control and 103 % of control
- T/C (endpoint: mean survival time, dose: 2.5 mg/kg/injection, schedule: Q01DX009 (oral), vehicle: saline): 98 % of control
- T/C (endpoint: mean survival time, dose: 10.0 mg/kg/injection, schedule: Q01DX009 (oral), vehicle: saline): 109 % of control
- T/C (endpoint: mean survival time, dose: 20.0 mg/kg/injection, schedule: Q01DX009 (oral), vehicle: saline): 104 % of control and 105 % of control
- T/C (endpoint: median survival time, dose: 0.5 mg/kg/injection, schedule: Q01DX009 (ip), vehicle: saline): 123 % of control
- T/C (endpoint: median survival time, dose: 2.0 mg/kg/injection, schedule: Q01DX009 (ip), vehicle: saline): 163 % of control
- T/C (endpoint: median survival time, dose: 4.0 mg/kg/injection, schedule: Q01DX009 (ip), vehicle: saline): 228 % of control
- T/C (endpoint: median survival time, dose: 8.0 mg/kg/injection, schedule: Q01DX009 (ip), vehicle: saline): 195 % of control

Compound: CN(C)CC#N
- T/C (endpoint: mean survival time, dose: 5.0 mg/kg/injection, schedule: Q01DX009 (ip), vehicle: saline sonified): 97 % of control
- T/C [8]: 103 % of control
- T/C (endpoint: mean survival time, dose: 10.0 mg/kg/injection, schedule: Q01DX009 (ip), vehicle: saline sonified): 97 % of control
- T/C (endpoint: mean survival time, dose: 10.0 mg/kg/injection, schedule: Q04DX003 (ip), vehicle: saline): 97 % of control
- T/C (endpoint: mean survival time, dose: 20.0 mg/kg/injection, schedule: Q01DX009 (ip), vehicle: saline sonified): 98 % of control
- T/C (endpoint: mean survival time, dose: 20.0 mg/kg/injection, schedule: Q04DX003 (ip), vehicle: saline): 95 % of control

Compound: CCOC(=O)c1c(C)cc(O)cc1O
- T/C [5]: 95 % of control
- T/C [6]: 95 % of control
- T/C [7]: 95 % of control

Compound: CCN(CC)N=Nc1ccccc1
- T/C (endpoint: mean survival time, dose: 75.0 mg/kg/injection, schedule: Q01DX001 (ip), vehicle: saline): 114 % of control

Compound: [Cl][Pt+2][Cl].[NH-]c1ccccc1C(F)(F)F.[NH-]c1ccccc1C(F)(F)F
- T/C (endpoint: mean survival time, dose: 12.5 mg/kg/injection, schedule: Q04DX003 (ip), vehicle: distilled water + Tween-80): 97 % of control
- T/C (endpoint: mean survival time, dose: 25.0 mg/kg/injection, schedule: Q04DX003 (ip), vehicle: distilled water + Tween-80): 97 % of control
- T/C (endpoint: mean survival time, dose: 50.0 mg/kg/injection, schedule: Q04DX003 (ip), vehicle: distilled water + Tween-80): 106 % of control
- T/C (endpoint: mean survival time, dose: 100.0 mg/kg/injection, schedule: Q04DX003 (ip), vehicle: distilled water + Tween-80): 114 % of control

Compound: O=C(/C=C/c1ccncc1)c1ccccc1
- T/C [2]: 92 % of control
- T/C [5]: 89 % of control
- T/C [1]: 89 % of control
- T/C [6]: 89 % of control
- T/C [3]: 91 % of control
- T/C [7]: 95 % of control

Compound: CCC[CH2][Sn]([Cl])([CH2]Cl)[CH2]CCC
- T/C (endpoint: mean survival time, dose: 2.5 mg/kg/injection, schedule: Q04DX003 (ip), vehicle: saline): 98 % of control
- T/C [8]: 97 % of control

Compound: NC1=C(Br)C(=O)C(=O)c2ccccc21
- T/C (endpoint: mean survival time, dose: 100.0 mg/kg/injection, schedule: Q01DX001 (ip), vehicle: saline with Tween-80): 101 % of control
- T/C (endpoint: mean survival time, dose: 200.0 mg/kg/injection, schedule: Q01DX001 (ip), vehicle: saline with Tween-80): 101 % of control
- T/C (endpoint: mean survival time, dose: 400.0 mg/kg/injection, schedule: Q01DX001 (ip), vehicle: saline with Tween-80): 97 % of control

Compound: S=C(Nc1ccccc1)N1CCCC1
- T/C [4]: 96 % of control
- T/C [2]: 100 % of control
- T/C [1]: 102 % of control

From PubChem BioAssay AID256 (DTP/NCI, 2004)
